“Also recorded” adds a separate entry of the source.
Assays:
[1] = system: Calu-1 tumors; assay: Antitumor activity, Calu-1 xenograft in nude mice; format: in vivo; settings: 1 mg/kg/day i.p.
Excerpt: (§1) Antitumor Activity in the Nude Mouse Tumor Xenograft Model. Nude mice and C57 BL-6 black mice (National Cancer Institute, Bethesda, Md.) were maintained in accordance with the Institutional Animal Care and Use Committee (IACUC) procedures and guidelines. v-Src- and oncogenic H-Ras-transformed NIH 3T3, A549, MDA-MB-468 and Calu-1 cells were harvested, resuspended in PBS and injected s.c. into the right and left flank (10×10^6 cells per flank) of 8 week old female nude mice as reported previously (Sun, J. et al. Cancer Res., 1999, 59:4919-4926). Similarly, murine B16-F10 Melanoma cells were injected s.c. into the right and left flank (10^6 cells per flank) of C57 black mice. When tumors reached about 150 mm^3, animals were randomized (five animals per group; two tumors per animal) and dosed i.p. with 0.2 ml once daily. Control animals received DMSO (20%) vehicle whereas treated animals were injected with JSI-124 (1 mg/kg/day) in 20% DMSO in water. The tumor volumes were determined by measuring the length (l) and the width (w) and calculating the volume (V=1w^2/2) as described previously (Sun, J. et al. Cancer Res., 1999, 59:4919-4926). Statistical significance between control and treated animals were evaluated by using Student's t-test. […] Percent surviving mice was determined by monitoring the death of mice until all mice died. […]

[2] = system: phospho-Erk1/2; assay: Western blotting for phospho-Erk1/2; format: cell-based, human; settings: A549 and MDA-MB-468 cells, up to 10 μM
Description: (§2) Western Blotting. Treated cell samples were lysed in 30 mM Hepes, pH 7.5, 10 mM NaCl, 5 mM MgCl2, 25 mM NaF, 1 mM EGTA, 1% Triton-X-100, 10% glycerol, 2 mM sodium orthovanadate, 10 μg/ml aprotinin, 10 μg/ml soybean trypsin inhibitor, 25 μg/ml leupeptin, 2 mM PMSF, and 6.4 mg/ml p-nitrophenylphosphate. Phospho-STAT3, phospho-AKT, phospho-MEK, and phospho-p42/p44 MAPK antibodies were obtained from Cell Signaling Technologies, Cambridge, Mass. Antibodies to STAT3, JAK2, and phospho-INK were purchased from Santa Cruz Biotechnology, Santa Cruz, Calif. Phospho-JAK2 antibody came from Upstate Biotechnology, Lake Placid, N.Y. Membranes were blocked in either 5% milk in PBS, pH 7.4, containing 0.1% Tween-20 (PBS-T) or 1% BSA in TBS, pH 7.5, containing 0.1% Tween-20 (TBS-T). Phospho-specific antibodies (excepting P-MAPK and P-JNK) were incubated in 1% BSA in TBS-T while all other antibodies were diluted in 5% milk in PBS-T for either 2 hr at room temperature or overnight at 4° C. HRP-conjugated secondary antibodies (Jackson ImmunoResearch) were diluted in 5% milk in either PBS-T or TBS-T at 1:1000 dilution for one hour at room temperature. Western blots were visualized using enhanced chemiluminescence as described previously (Blaskovich, M. A. et al. Nat. Biotechnol., 2000, 18:1065-1070).

[3] = system: Src; assay: Src kinase autophosphorylation assay on immunoprecipitates; format: biochemical; settings: immunoprecipitates from A549, MDA-MB-468 or v-Src/NIH 3T3 cells
Description: Src Kinase Assay. A549, MDA-MB-468, and v-Src cells were harvested and lysed for 30 min on ice in RIPA150 buffer (10 mM Tris, pH 7.5, 150 mM NaCl, 10% glycerol, 5 mM EDTA, 1% Triton-X-100, 0.1% SDS, 100 μM sodium orthovanadate, 10 μg/ml aprotinin, 10 μg/ml leupeptin, 1 μg/ml antipain). Samples were spun at high speed to clear, then 1000 μg of protein were immunoprecipitated per treatment condition with 2 μg v-Src antibody (Ab-1, Oncogene Research Products, San Diego, Calif.) rocking overnight at 4° C. 25 μl of protein A/G PLUS agarose then was added and rocking continued for 4 hr at 4° C. Samples were spun to collect agarose pellet, and pellet washed three times in RIPA150 buffer, twice in RIPA10 buffer (10 mM Tris, pH 7.5, 10 mM NaCl, 10% glycerol, 5 mM EDTA, 1% Triton-X-100, 0.1% SDS, 100 μM sodium orthovanadate 10 μg/ml aprotinin, 10 μg/ml leupeptin, 1 μg/ml antipain), and three times in 40 mM Tris, pH 7.4. Pellet was then resuspended in 30 μl kinase reaction buffer (20 mM Tris, pH 7.4, 5 mM MgCl2) containing 10 μCi γ-[^32P]ATP. Inhibitors were preincubated for several minutes before the addition of the ATP. Kinase reactions were carried out at room temperature for 15 min. Reaction was stopped with the addition of 2×SDS-PAGE sample buffer. Samples were boiled and run on 10% SDS-PAGE gels. Autophosphorylation results were visualized by autoradiography.

[4] = system: STAT3; assay: Western blotting for STAT3 protein levels; format: cell-based, human; settings: A549 and MDA-MB-468 cells
Description: as §2
Immunoprecipitation of STAT3. […]

[5] = system: MDA-MB-468 tumors; assay: Antitumor activity, MDA-MB-468 xenograft in nude mice; format: in vivo; settings: 1 mg/kg/day i.p.
Excerpt: as §1

[6] = system: phosphotyrosine JAK2; assay: Western blotting for phosphotyrosine JAK2; format: cell-based, human
Description: as §2

[7] = system: phosphotyrosine Src; assay: Western blotting for phosphotyrosine Src; format: cell-based, human; settings: A549 and MDA-MB-468 cells, various concentrations, 4 hr
Description: as §2

Compound: CC(C)(O)/C=C/C(=O)[C@](C)(O)[C@H]1[C@H](O)C[C@@]2(C)[C@@H]3CC=C4[C@@H](C=C(O)C(=O)C4(C)C)[C@]3(C)C(=O)C[C@]12C [JSI-124, cucurbitacin I]
- effect on growth of Calu-1 tumors [1]: little effect
- phospho-Erk1/2 levels [2]: no inhibitory effect; also recorded: increased the levels of phosphorylation
- Src kinase activity (autophosphorylation) in vitro [3]: not affected
- STAT3 protein levels [4]: no effect on the protein levels of STAT3 and JAK2
- inhibition of MDA-MB-468 tumor growth [5]: 86%
- levels of tyrosine phosphorylated JAK2 ([6]; A549 and MDA-MB-468 cells, various concentrations, 4 hr): effective at suppressing the levels of tyrosine phosphorylated JAK2
- inhibition of phospho JAK2 levels (in words) ([6]; A-549 cells, 0-10 μM): inhibits both phospho STAT3 and phospho JAK2 levels
- IC50 ([6]; A-549 cells, Western blotting, read-out: IC50 for phospho-JAK2): 0.2 µM
- levels of tyrosine phosphorylated Src [7]: not those of tyrosine phosphorylated Src

Source: patent US8691799B2, “Materials and methods for treatment of cancer and identification of anti-cancer compounds” (priority 2001, dated 2014)
